Converted amounts (≈) assume the structure as drawn. Where two headings read alike, the source gives them in different places.
Tests used:
Staphyloccus aureus X1.1 = test: MIC, standard agar-dilution assay (Table IX); assay type: cell-based, Staphylococcus aureus
[1] = test system: Staphylococcus aureus V41; test: MIC, standard agar-dilution assay (Table IX); assay type: cell-based; details: Staphylococcus aureus V41, Penicillin-resistant strain
[2] = test system: Staphylococcus aureus X400; test: MIC, standard agar-dilution assay (Table IX); assay type: cell-based; details: Staphylococcus aureus X400, Methicillin-resistant strain
[3] = test system: Staphylococcus aureus S13E; test: MIC, standard agar-dilution assay (Table IX); assay type: cell-based
[4] = test system: Staphylococcus epidermidis EPI1; test: MIC, standard agar-dilution assay (Table IX); assay type: cell-based; details: Staphylococcus epidermidis EPI1, agar-dilution
[5] = test system: Staphylococcus epidermidis 222; test: MIC, standard agar-dilution assay (Table IX); assay type: cell-based
[6] = test system: Streptococcus pyogenes C203; test: MIC, standard agar-dilution assay (Table IX); assay type: cell-based
[7] = test system: Streptococcus pneumoniae Park I; test: MIC, standard agar-dilution assay (Table IX); assay type: cell-based; details: Streptococcus pneumoniae Park I, agar-dilution
[8] = test system: Streptococcus Group D X66; test: MIC, standard agar-dilution assay (Table IX); assay type: cell-based
[9] = test system: Streptococcus Group D 2041; test: MIC, standard agar-dilution assay (Table IX); assay type: cell-based
[10] = test system: Haemophilus influenzae C.L.; test: MIC, standard agar-dilution assay (Table IX); assay type: cell-based; details: Ampicillin-sensitive strain
[11] = test system: Haemophilus influenzae 76; test: MIC, standard agar-dilution assay (Table IX); assay type: cell-based; details: Haemophilus influenzae 76, Ampicillin-resistant strain
Escherichia coli N10 = test: MIC, standard agar-dilution assay (Table IX); assay type: cell-based
Escherichia coli EC14 = test: MIC, standard agar-dilution assay (Table IX); assay type: cell-based
Escherichia coli TEM = test: MIC, standard agar-dilution assay (Table IX); assay type: cell-based
Klebsiella X26 = test: MIC, standard agar-dilution assay (Table IX); assay type: cell-based
[12] = test system: Mycoplasma gallisepticum 29C; test: MIC, broth-dilution microtiter test (Table X); assay type: cell-based
From the text: (§1) The MIC's in Table X were obtained using conventional broth-dilution microtiter tests.

[13] = test system: Mycoplasma hyopneumoniae S5972; test: MIC, broth-dilution microtiter test (Table X); assay type: cell-based
From the text: as §1

Mycoplasma hyorhinis 29E = test: MIC, broth-dilution microtiter test (Table X); assay type: cell-based
From the text: as §1

Mycoplasma synoviae 40A = test: MIC, broth-dilution microtiter test (Table X); assay type: cell-based
From the text: as §1

[14] = test system: Pasteurella hemolytica 22C; test: MIC, broth-dilution microtiter test (Table X); assay type: cell-based
From the text: as §1

[15] = test system: Pasteurella multocida 17E; test: MIC, broth-dilution microtiter test (Table X); assay type: cell-based; details: Bovine isolate
From the text: as §1

[16] = test system: Pasteurella multocida 60A; test: MIC, broth-dilution microtiter test (Table X); assay type: cell-based; details: Avian isolate
From the text: as §1

Staphylococcus aureus = test: MIC, broth-dilution microtiter test (Table X); assay type: cell-based
From the text: as §1

Streptococcus sp. 19F = test: MIC, broth-dilution microtiter test (Table X); assay type: cell-based
From the text: as §1

Pasteurella multocida = test: Pasteurella infection in one-day-old chicks, subcutaneous administration (Table XII); assay type: in vivo; details: Administered subcutaneously, 30 mg/kg × 2, 1 and 4 hours post-challenge
Method: Many of the C-20 modified derivatives of this invention have also shown in vivo antibacterial activity against infections induced by gram-negative bacteria. Tables XII and XIII summarize the results of tests in which illustrative compounds were evaluated against a Pasteurella infection in one-day-old chicks. The compounds were administered parenterally or orally after challenge of the chicks with Pasteurella multocida (0.1 ml of a 10^-4 dilution of a twenty-hour tryptose broth culture of an avian P. multocida given subcutaneously). In these tests, unless indicated otherwise, all non-medicated infected chicks died within 24 hours of Pasteurella challenge. In the tests summarized in Table XII, the compounds were administered by subcutaneous injection at a dosage of 30 mg/kg, 1 and 4 hours post-challenge of the chicks with P. multocida. In the tests summarized in Table XIII the compounds were administered in medicated drinking water (at a level of 2 g/gal) available from 4 to 20 hours prior to challenge of the chicks with P. multocida and during the 3 -day test period.
^a Administered subcutaneously; 30 mg/kg × 2

[17] = Titratable groups in 66% aqueous DMF (Tables XIV-XVI); assay type: physicochemical
From the text: ^c Run in 66% aqueous DMF
^d Run in 66% aqueous DMF

[18] = test system: Streptococcus pyogenes C203; test: ED50 in mice experimentally infected with S. pyogenes C203 (Table XI); assay type: in vivo; details: Streptococcus pyogenes, doses given 1 and 4 hours postinfection, read-out: ED50
Method: The C-20 modified derivatives of this invention have shown in vivo antimicrobial activity against experimentally-induced infections in laboratory animals. When two doses of test compound were administered to mice experimentally infected with S. pyogenes C203, the activity observed was measured as an ED50 value [effective dose in mg/kg to protect 50% of the test animals: see Warren Wick, et al., J. Bacteriol. 81, 233-235 (1961)].
^a mg/kg × 2; doses given 1 and 4 hours postinfection

[19] = Staphylococcus aureus, read-out: MIC
[20] = Mycoplasmoides gallisepticum, read-out: MIC
[21] = Mesomycoplasma hyopneumoniae, read-out: MIC
[22] = Mycoplasmopsis synoviae, read-out: MIC

CCC1OC(=O)CC(O)C(C)C(OC2OC(C)C(O)C(N(C)C)C2O)C(CCN2CCC(C)CC(C)(C)C2)CC(C)C(=O)C=CC(C)=CC1COC1OC(C)C(O)C(OC)C1OC (single isomer, unassigned) [Compound D24, 20-DH-DO-20-(3,3,5-Trimethylhexahydroazepin-1-yl)desmycosin]
MIC (Staphyloccus aureus X1.1): 0.5 µg/mL (≈ 0.557 µM)
MIC [1]: 0.5 µg/mL (≈ 0.557 µM)
MIC [2]: 1 µg/mL (≈ 1.11 µM)
MIC ([3]; Staphylococcus aureus S13E, agar-dilution): 0.5 µg/mL (≈ 0.557 µM)
MIC [4]: 0.5 µg/mL (≈ 0.557 µM)
MIC [5]: 0.25 µg/mL (≈ 0.279 µM)
MIC [6]: 0.25 µg/mL (≈ 0.279 µM)
MIC [7]: 1 µg/mL (≈ 1.11 µM)
MIC [8]: 4 µg/mL (≈ 4.46 µM)
MIC [9]: 8 µg/mL (≈ 8.92 µM)
MIC [10]: 32 µg/mL (≈ 35.7 µM)
MIC [11]: 8 µg/mL (≈ 8.92 µM)
MIC (Escherichia coli N10): 64 µg/mL (≈ 71.3 µM)
MIC (Escherichia coli EC14): 64 µg/mL (≈ 71.3 µM)
MIC (Escherichia coli TEM): 32 µg/mL (≈ 35.7 µM)
MIC (Klebsiella X26): 128 µg/mL (≈ 143 µM)
MIC [12]: 0.39 µg/mL (≈ 0.435 µM)
MIC [13]: 0.78 µg/mL (≈ 0.869 µM)
MIC (Mycoplasma hyorhinis 29E): 25 µg/mL (≈ 27.9 µM)
MIC (Mycoplasma synoviae 40A): 0.097 µg/mL (≈ 0.108 µM)
MIC [14]: 6.25 µg/mL (≈ 6.97 µM)
MIC [15]: 12.5 µg/mL (≈ 13.9 µM)
MIC [16]: 6.25 µg/mL (≈ 6.97 µM)
MIC (Staphylococcus aureus): 3.12 µg/mL (≈ 3.48 µM)
MIC (Streptococcus sp. 19F): 3.12 µg/mL (≈ 3.48 µM)
Number of Deaths/Number Treated (Pasteurella multocida): 2/10
Titratable groups [17]: 9.4
Titratable groups (first value) [17]: 7.9

CCC1OC(=O)CC(O)C(C)C(OC2OC(C)C(O)C(N(C)C)C2O)C(CCN2CCCCCCCCCCCC2)CC(C)C(=O)C=CC(C)=CC1COC1OC(C)C(O)C(OC)C1OC (stereo not shown) [Compound D10, 20-DH-DO-20-(azacyclotridecan-1-yl)desmycosin]
MIC (Staphyloccus aureus X1.1; [19]): 0.25 µg/mL (≈ 0.266 µM)
MIC ([1]; read-out: MIC): 0.25 µg/mL (≈ 0.266 µM)
MIC ([2]; read-out: MIC): 0.25 µg/mL (≈ 0.266 µM)
MIC ([3]; Staphylococcus aureus, S13E): 0.25 µg/mL (≈ 0.266 µM)
MIC ([4]; read-out: MIC): 0.25 µg/mL (≈ 0.266 µM)
MIC ([5]; read-out: MIC): 0.12 µg/mL (≈ 0.128 µM)
MIC ([7]; read-out: MIC): 0.25 µg/mL (≈ 0.266 µM)
MIC ([8]; read-out: MIC): 4 µg/mL (≈ 4.26 µM)
MIC ([9]; GROUPD2041, read-out: MIC): 4 µg/mL (≈ 4.26 µM)
MIC ([10]; read-out: MIC): 4 µg/mL (≈ 4.26 µM)
MIC ([11]; read-out: MIC): 8 µg/mL (≈ 8.52 µM)
MIC (Escherichia coli N10; read-out: MIC): 32 µg/mL (≈ 34.1 µM)
MIC (Escherichia coli EC14; read-out: MIC): 64 µg/mL (≈ 68.1 µM)
MIC (Escherichia coli TEM; read-out: MIC): 8 µg/mL (≈ 8.52 µM)
MIC (Klebsiella X26; read-out: MIC): 16 µg/mL (≈ 17 µM)
MIC [12, 20]: 0.097 µg/mL (≈ 0.103 µM)
MIC [13, 21]: 0.78 µg/mL (≈ 0.83 µM)
MIC (Mycoplasma hyorhinis 29E; read-out: MIC): 12.5 µg/mL (≈ 13.3 µM)
MIC (Mycoplasma synoviae 40A; [22]): ≤ 0.048 µg/mL
MIC ([14]; read-out: MIC): 1.56 µg/mL (≈ 1.66 µM)
MIC ([15]; read-out: MIC): 1.56 µg/mL (≈ 1.66 µM)
MIC ([16]; read-out: MIC): 3.12 µg/mL (≈ 3.32 µM)
MIC (Staphylococcus aureus; read-out: MIC): 0.39 µg/mL (≈ 0.415 µM)
MIC (Streptococcus sp. 19F; read-out: MIC): 0.78 µg/mL (≈ 0.83 µM)
ED50 ([18]; C203, Oral): 68 mg/kg
ED50 ([18]; C203, sc, Subcutaneous): < 10 mg/kg
Number of Deaths/Number Treated (Pasteurella multocida): 10/10
pKa ([17]; Titratable groups): 9.5
pKa ([17]; Titratable groups (first value)): 8

CCC1OC(=O)CC(O)C(C)C(OC2OC(C)C(O)C(N(C)C)C2O)C(CCN2CC=C(c3ccccc3)CC2)CC(C)C(=O)C=CC(C)=CC1COC1OC(C)C(O)C(OC)C1OC (stereo not shown) [Compound D26, 20-DH-DO-20-(4-phenyl-1,2,3,6-tetrahydropyridin-1-yl)desmycosin]
MIC (Staphyloccus aureus X1.1; [19]): 0.5 µg/mL (≈ 0.546 µM)
MIC ([1]; read-out: MIC): 0.5 µg/mL (≈ 0.546 µM)
MIC ([2]; read-out: MIC): 0.5 µg/mL (≈ 0.546 µM)
MIC ([3]; Staphylococcus aureus, S13E): 0.5 µg/mL (≈ 0.546 µM)
MIC ([4]; read-out: MIC): 0.5 µg/mL (≈ 0.546 µM)
MIC ([5]; read-out: MIC): 0.25 µg/mL (≈ 0.273 µM)
MIC ([6]; read-out: MIC): 0.25 µg/mL (≈ 0.273 µM)
MIC ([7]; read-out: MIC): 0.25 µg/mL (≈ 0.273 µM)
MIC ([8]; read-out: MIC): 1 µg/mL (≈ 1.09 µM)
MIC ([9]; GROUPD2041, read-out: MIC): 2 µg/mL (≈ 2.19 µM)
MIC ([10]; read-out: MIC): 32 µg/mL (≈ 35 µM)
MIC ([11]; read-out: MIC): 8 µg/mL (≈ 8.74 µM)
MIC (Escherichia coli N10; read-out: MIC): 128 µg/mL (≈ 140 µM)
MIC (Escherichia coli EC14; read-out: MIC): 128 µg/mL (≈ 140 µM)
MIC (Escherichia coli TEM; read-out: MIC): 32 µg/mL (≈ 35 µM)
MIC (Klebsiella X26; read-out: MIC): 64 µg/mL (≈ 69.9 µM)
MIC [12, 20]: ≤ 0.048 µg/mL
MIC [13, 21]: 0.78 µg/mL (≈ 0.852 µM)
MIC (Mycoplasma hyorhinis 29E; read-out: MIC): 25 µg/mL (≈ 27.3 µM)
MIC (Mycoplasma synoviae 40A; [22]): 0.78 µg/mL (≈ 0.852 µM)
MIC ([14]; read-out: MIC): 12.5 µg/mL (≈ 13.7 µM)
MIC ([15]; read-out: MIC): 6.25 µg/mL (≈ 6.83 µM)
MIC ([16]; read-out: MIC): 12.5 µg/mL (≈ 13.7 µM)
MIC (Staphylococcus aureus; read-out: MIC): 3.12 µg/mL (≈ 3.41 µM)
MIC (Streptococcus sp. 19F; read-out: MIC): 0.78 µg/mL (≈ 0.852 µM)
ED50 ([18]; C203, Oral): 12.5 mg/kg
ED50 ([18]; C203, sc, Subcutaneous): 5.61 mg/kg
Number of Deaths/Number Treated (Pasteurella multocida): 10/10

From patent publication US4820695A, “C-20-dihydro-deoxy-(cyclic amino)-derivatives of macrolide antibiotics” (priority 1987, dated 1989)
